“And” between values parts separate entries of the source, which are not always exact repeats. Equal entries are not always repeated. Inconclusive results and toxic doses are left out. Rule as the data show it: active = T/C of 150% or more; inactive = T/C below 125%.
Test system: L1210 leukemia ip in BDF1 mice, survival T/C
Test: NCI In Vivo Anticancer Drug Screen. Data for tumor model L1210 Leukemia (intraperitoneal) in B6D2F1 (BDF1) mice
Conditions: endpoint: mean survival time, higher = longer survival
In short: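 Read-out is survival time, reported as the treated-group measurement over the vehicle-control measurement.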

[1] = dose: 200.0 mg/kg/injection, schedule: Q04DX003 (ip), vehicle: Klucel (hydroxypropylcellulose) (HPC)
[2] = dose: 400.0 mg/kg/injection, schedule: Q04DX003 (ip), vehicle: Klucel (hydroxypropylcellulose) (HPC)
[3] = dose: 100.0 mg/kg/injection, schedule: Q01DX001 (ip), vehicle: saline
[4] = dose: 200.0 mg/kg/injection, schedule: Q01DX001 (ip), vehicle: saline
[5] = dose: 50.0 mg/kg/injection, schedule: Q01DX001 (ip), vehicle: carboxymethylcellulose (CMC)
[6] = dose: 100.0 mg/kg/injection, schedule: Q01DX009 (ip), vehicle: saline with Tween-80
[7] = dose: 100.0 mg/kg/injection, schedule: Q04DX003 (ip), vehicle: saline with Tween-80
[8] = dose: 200.0 mg/kg/injection, schedule: Q04DX003 (ip), vehicle: saline with Tween-80
[9] = dose: 400.0 mg/kg/injection, schedule: Q01DX009 (ip), vehicle: saline with Tween-80
[10] = dose: 400.0 mg/kg/injection, schedule: Q04DX003 (ip), vehicle: saline with Tween-80
[11] = dose: 100.0 mg/kg/injection, schedule: Q04DX002 (ip), vehicle: Klucel (hydroxypropylcellulose) (HPC)
[12] = dose: 200.0 mg/kg/injection, schedule: Q04DX002 (ip), vehicle: Klucel (hydroxypropylcellulose) (HPC)
[13] = dose: 400.0 mg/kg/injection, schedule: Q04DX002 (ip), vehicle: Klucel (hydroxypropylcellulose) (HPC)

Measured: T/C

CC(C)S.[Pb]
inactive: dose: 100.0 mg/kg/injection, schedule: Q04DX002 (ip), vehicle: gum acacia 100 % of control | dose: 200.0 mg/kg/injection, schedule: Q04DX002 (ip), vehicle: gum acacia 100 % of control | dose: 400.0 mg/kg/injection, schedule: Q04DX002 (ip), vehicle: gum acacia 89 % of control

COC(=O)C1=C2Nc3ccccc3C23CCN2CC4(CC5CC67CCOC6CCN6CCC8(c9cccc(OC)c9N(C4)C58O)C67)C4OCCC4(C1)C23 (centres undefined)
inactive: [1] 88 % of control | [2] 93 % of control

NC1CC2C=CCC(C1)C2 (centres undefined)
inactive: [3] 95 % of control | [4] 94 % of control

CCCCCCCCCCCCCCCCS(=O)(=O)c1ccc(Cl)cc1
inactive: dose: 100.0 mg/kg/injection, schedule: Q01DX009 (ip), vehicle: gum acacia 91 % of control | dose: 100.0 mg/kg/injection, schedule: Q04DX003 (ip), vehicle: gum acacia 94 % of control | dose: 200.0 mg/kg/injection, schedule: Q01DX009 (ip), vehicle: gum acacia 92 % of control | dose: 200.0 mg/kg/injection, schedule: Q04DX003 (ip), vehicle: gum acacia 93 % of control | dose: 400.0 mg/kg/injection, schedule: Q01DX009 (ip), vehicle: gum acacia 91 % of control | dose: 400.0 mg/kg/injection, schedule: Q04DX003 (ip), vehicle: gum acacia 86 % of control

O=C(c1ccccc1)c1c(-c2ccccc2)c(-c2ccccc2)n(-c2ccccc2)c1C(=O)c1ccccc1
inactive: dose: 22.2 mg/kg/injection, schedule: Q01DX001 (ip), vehicle: carboxymethylcellulose (CMC) 94 % of control and 96 % of control | dose: 33.35 mg/kg/injection, schedule: Q01DX001 (ip), vehicle: carboxymethylcellulose (CMC) 91 % of control | [5] 94 % of control | dose: 75.0 mg/kg/injection, schedule: Q01DX001 (ip), vehicle: carboxymethylcellulose (CMC) 94 % of control

O=C(Nc1ccc(Cl)cc1)Oc1ccc(Cl)cc1Cc1ccccc1
inactive: dose: 100.0 mg/kg/injection, schedule: Q04DX002 (ip), vehicle: saline with Tween-80 93 % of control | dose: 200.0 mg/kg/injection, schedule: Q04DX002 (ip), vehicle: saline with Tween-80 118 % of control | dose: 400.0 mg/kg/injection, schedule: Q04DX002 (ip), vehicle: saline with Tween-80 89 % of control

c1ccc2c(C3OCC4(CC4)CO3)cccc2c1
inactive: dose: 25.0 mg/kg/injection, schedule: Q01DX001 (ip), vehicle: Klucel (hydroxypropylcellulose) (HPC) 100 % of control | dose: 50.0 mg/kg/injection, schedule: Q01DX001 (ip), vehicle: Klucel (hydroxypropylcellulose) (HPC) 96 % of control | dose: 100.0 mg/kg/injection, schedule: Q01DX001 (ip), vehicle: Klucel (hydroxypropylcellulose) (HPC) 105 % of control

CC(=O)OCCN1c2ccccc2Sc2cnccc21
inactive: [6] 104 % of control | [7] 104 % of control | dose: 200.0 mg/kg/injection, schedule: Q01DX009 (ip), vehicle: saline with Tween-80 97 % of control | [8] 110 % of control | [9] 104 % of control | [10] 104 % of control

Cc1ccc(C(=O)OCc2ccccc2CN2CCCCC2C)cc1 (centres undefined)
inactive: [11] 94 % of control | [12] 108 % of control | [13] 90 % of control

CO[C@@H](C=O)O[C@@H](C=O)CO
inactive: dose: 35.0 mg/kg/injection, schedule: Q01DX009 (ip), vehicle: water 115 % of control | dose: 35.0 mg/kg/injection, schedule: Q01DX Z (ip), vehicle: water 115 % of control | dose: 70.0 mg/kg/injection, schedule: Q01DX009 (ip), vehicle: water 123 % of control | dose: 70.0 mg/kg/injection, schedule: Q01DX Z (ip), vehicle: water 122 % of control
active: dose: 280.0 mg/kg/injection, schedule: Q01DX009 (ip), vehicle: water 153 % of control | dose: 280.0 mg/kg/injection, schedule: Q01DX Z (ip), vehicle: water 160 % of control

CC(CCOC(=O)c1ccccc1)OC(=O)c1ccccc1 (centres undefined)
inactive: [3] 92 % of control | [4] 121 % of control | dose: 400.0 mg/kg/injection, schedule: Q01DX001 (ip), vehicle: saline 105 % of control

CC12CCCCC1C1=C(CCCC1)CC2 (centres undefined)
inactive: [5] 97 % of control | dose: 100.0 mg/kg/injection, schedule: Q01DX001 (ip), vehicle: carboxymethylcellulose (CMC) 92 % of control | dose: 200.0 mg/kg/injection, schedule: Q01DX001 (ip), vehicle: carboxymethylcellulose (CMC) 94 % of control | dose: 400.0 mg/kg/injection, schedule: Q01DX001 (ip), vehicle: carboxymethylcellulose (CMC) 97 % of control

OCC1(CO)CCCCC1
inactive: dose: 100.0 mg/kg/injection, schedule: Q04DX003 (ip), vehicle: Klucel (hydroxypropylcellulose) (HPC) 105 % of control | [1] 109 % of control | [2] 105 % of control

CC(=O)Oc1cccc(C#N)c1
inactive: [7] 98 % of control | [8] 107 % of control | [10] 98 % of control

CC(C)=CCCOC(N)=O
inactive: [7] 104 % of control | [8] 102 % of control | [10] 98 % of control

O=C1CN=C(c2ccccc2)c2cc(Cl)ccc2N1
inactive: dose: 25.0 mg/kg/injection, schedule: Q01DX009 (ip), vehicle: Klucel (hydroxypropylcellulose) (HPC) 92 % of control | dose: 50.0 mg/kg/injection, schedule: Q01DX009 (ip), vehicle: Klucel (hydroxypropylcellulose) (HPC) 94 % of control | dose: 100.0 mg/kg/injection, schedule: Q01DX009 (ip), vehicle: Klucel (hydroxypropylcellulose) (HPC) 89 % of control | [11] 106 % of control | dose: 200.0 mg/kg/injection, schedule: Q01DX009 (ip), vehicle: Klucel (hydroxypropylcellulose) (HPC) 98 % of control | [12] 93 % of control | [13] 89 % of control

Clc1ccc(/C=N\N=C\c2ccc(Cl)c(Cl)c2)cc1Cl
inactive: dose: 25.0 mg/kg/injection, schedule: Q01DX009 (ip), vehicle: saline with Tween-80 90 % of control | dose: 50.0 mg/kg/injection, schedule: Q01DX009 (ip), vehicle: saline with Tween-80 90 % of control | [6] 95 % of control and 90 % of control | [8] 90 % of control | [9] 97 % of control | [10] 91 % of control

Nc1ccnc2cc(Cl)ccc12
inactive: dose: 75.0 mg/kg/injection, schedule: Q01DX001 (ip), vehicle: other 103 % of control | dose: 150.0 mg/kg/injection, schedule: Q01DX001 (ip), vehicle: other 100 % of control
